Assay results from patent publication US20210386068A1, “COMPOSITIONS COMPRISING PYRIDINE CARBOXYLATE HERBICIDES AND VERY LONG CHAIN FATTY ACID (VLCFA) SYNTHESIS INHIBITOR HERBICIDES” (priority 2018, published 2021).
Where “and” joins values, the source holds several entries; their conditions need not be identical. Equal entries are not always repeated.

Legend:
[1] = tested on: Brassica napus (winter rape, BRSNW); experiment: Greenhouse postemergence herbicidal effect, visual injury 20-22 d after spraying, winter rape (BRSNW); type: in vivo; conditions: for % visual injury Obs: BRSNW
Source text: (§1) Seeds of the desired test plant species were planted in a 90:10% v/v (volume/volume) mixture of PRO-MIX® BX (Premier Tech Horticulture, Quakertown, Pa., USA) and PROFILE® GREENS GRADE™ (Profile Products LLC, Buffalo Grove, Ill., USA) planting mixture, which typically has a pH of 5.2 to 6.2 and an organic matter content of at least 50 percent, in plastic pots with a surface area of 103.2 square centimeters (cm^2). In some aspects, to ensure good germination and healthy plants, a fungicide treatment and/or other chemical or physical treatment was applied. The plants were grown for 7-36 days (d) in a greenhouse with an approximate 14-hour (h) photoperiod which was maintained at about 23° C. during the day and 22° C. during the night. Nutrients and water were added on a regular basis and supplemental lighting was provided with overhead metal halide 1000-Watt lamps as necessary. The plants were employed for testing when they reached the second or third true leaf stage.
(§2) Emulsifiable concentrates of each of each pyridine carboxylate herbicide (Compound A or Compound B) were prepared at 100 grams acid equivalent per liter (g ae/L). The emulsifiable concentrates also included a safener, cloquintocet-mexyl, at 120 grams active ingredient per liter (g ai/L). An aliquot of each emulsifiable concentrate was placed in a 25 mL glass vial and diluted with an aqueous mixture of 1.25% (v/v) ACTIROB® B esterified rapeseed oil (Bayer Crop Science, Research Triangle Park, N.C., USA) or MSO® Concentrate with LECI-TECH® methylated soybean oil (Loveland Products, Loveland, Colo., USA) to obtain concentrated stock solutions at the highest application rate for each herbicide, based upon a 12 milliliter (mL) application volume at a rate of 187 liters per hectare (L/ha). The concentrated stock solutions were further diluted with an aqueous mixture of 1.25% v/v ACTIROB® B or MSO® Concentrate with LECI-TECH® to obtain stock solutions at reduced application rates for each herbicide. Spray solutions of the herbicide combinations (Compound A or Compound B plus VLCFA synthesis inhibitor herbicide) were prepared by adding weighed amounts or aliquots of the VLCFA synthesis inhibitor herbicide to the stock solutions of Compound A or Compound B to form 12-mL spray solutions in two-way combinations.
(§3) The spray solutions were applied to the plant material with an overhead Mandel track sprayer equipped with 8002E nozzles calibrated to deliver 187 L/ha over an application area of 0.503 square meters (m^2) at a spray height of 18 inches ([…] (cm)) above the average plant canopy. Control plants were sprayed in the same manner with the solvent blank. All pyridine carboxylate herbicide (component a) application rates are given as “g ae/ha” and all VLCFA synthesis inhibitor herbicide (component b) application rates are given as “g ai/ha.”
(§4) The treated plants and control plants were placed in a greenhouse as described above and watered by sub-irrigation to prevent wash-off of the test compounds. After 20-22 d, the condition of the test plants as compared with that of the control plants was determined visually and scored on a scale of 0 to 100 percent where 0 corresponds to no injury and 100 corresponds to complete kill.

[2] = tested on: Capsella bursa-pastoris (shepherd's purse, CAPBP); experiment: Greenhouse postemergence herbicidal effect, visual injury 20-22 d after spraying, shepherd's purse (CAPBP); type: in vivo
Source text: as §1, §2, §3, §4

[3] = tested on: Amaranthus retroflexus (pigweed, AMARE); experiment: Greenhouse postemergence herbicidal effect, visual injury 20-22 d after spraying, pigweed (AMARE); type: in vivo
Source text: as §1, §2, §3, §4

[4] = tested on: Viola arvensis (field pansy, VIOAR); experiment: Greenhouse postemergence herbicidal effect, visual injury 20-22 d after spraying, field pansy (VIOAR); type: in vivo
Source text: as §1, §2, §3, §4

[5] = tested on: Matricaria inodora (scentless chamomile, MATIN); experiment: Greenhouse postemergence herbicidal effect, visual injury 20-22 d after spraying, scentless chamomile (MATIN); type: in vivo
Source text: as §1, §2, §3, §4

[6] = tested on: Matricaria chamomilla (wild chamomile, MATCH); experiment: Greenhouse postemergence herbicidal effect, visual injury 20-22 d after spraying, wild chamomile (MATCH); type: in vivo
Source text: as §1, §2, §3, §4

winter barley (HORVW) = experiment: Greenhouse postemergence crop phytotoxicity, visual injury 20-22 d after spraying, winter barley (HORVW); type: in vivo, Hordeum vulgare
Source text: as §1, §2, §3, §4

[7] = tested on: Papaver rhoeas (common poppy, PAPRH); experiment: Greenhouse postemergence herbicidal effect, visual injury 20-22 d after spraying, common poppy (PAPRH); type: in vivo
Source text: as §1, §2, §3, §4

[8] = tested on: Cirsium arvense (Canadian thistle, CIRAR); experiment: Greenhouse postemergence herbicidal effect, visual injury 20-22 d after spraying, Canadian thistle (CIRAR); type: in vivo
Source text: as §1, §2, §3, §4

[9] = tested on: Veronica persica (Persian speedwell, VERPE); experiment: Greenhouse postemergence herbicidal effect, visual injury 20-22 d after spraying, Persian speedwell (VERPE); type: in vivo
Source text: as §1, §2, §3, §4

[10] = tested on: Abutilon theophrasti (velvetleaf, ABUTH); experiment: Greenhouse postemergence herbicidal effect, visual injury 20-22 d after spraying, velvetleaf (ABUTH); type: in vivo
Source text: as §1
Emulsifiable concentrates of each of each pyridine carboxylate herbicide (Compound A or Compound B) were prepared at 100 grams acid equivalent per liter (g ae/L). The emulsifiable concentrates also included a safener, cloquintocet-mexyl, at 120 grams active ingredient per liter (g ai/L). […]
as §4

[11] = tested on: Brassica napus (spring rape, BRSNN); experiment: Greenhouse postemergence herbicidal effect, visual injury 20-22 d after spraying, spring rape (BRSNN); type: in vivo
Source text: as §1, §2, §3, §4

[12] = tested on: Veronica hederifolia (ivy-leaved speedwell, VERHE); experiment: Greenhouse postemergence herbicidal effect, visual injury 20-22 d after spraying, ivy-leaved speedwell (VERHE); type: in vivo
Source text: as §1, §2, §3, §4

N#CCOC(=O)c1nc(-c2ccc3cc[nH]c3c2F)c(F)c(N)c1Cl [Compound A, cyanomethyl 4-amino-3-chloro-5-fluoro-6-(7-fluoro-1H-indol-6-yl)pyridine-2-carboxylate]
% visual injury Obs ([1]; Compound A 7.5 g/ha alone): 35%
% visual injury Obs ([1]; Compound A 10 g/ha alone): 43% and 40%
% visual injury BRSNW Obs ([1]; Compound A 7.5 g/ha): 60%
% visual injury BRSNW Obs ([1]; Compound A 10 g/ha): 65%
% visual injury BRSNW Obs ([1]; Compound A 15 g/ha): 73%
% visual injury CAPBP Obs ([2]; Compound A 7.5 g/ha): 45%
% visual injury CAPBP Obs ([2]; Compound A 10 g/ha): 55%
% visual injury CAPBP Obs ([2]; Compound A 15 g/ha): 55%
% visual injury Obs ([3]; Compound A 7.5 g/ha alone): 78% and 80% and 70% and 90%
% visual injury Obs ([3]; Compound A 10 g/ha alone): 73% and 85% and 98%
% visual injury VIOAR Obs ([4]; Compound A 7.5 g/ha): 10%
% visual injury VIOAR Obs ([4]; Compound A 10 g/ha): 13%
% visual injury VIOAR Obs ([4]; Compound A 15 g/ha): 10%
% visual injury MATIN Obs ([5]; Compound A 7.5 g/ha): 55%
% visual injury MATIN Obs ([5]; Compound A 10 g/ha): 60%
% visual injury MATIN Obs ([5]; Compound A 15 g/ha): 83%
% visual injury MATCH Obs ([6]; Compound A 7.5 g/ha): 23%
% visual injury MATCH Obs ([6]; Compound A 10 g/ha): 35%
% visual injury MATCH Obs ([6]; Compound A 15 g/ha): 45%
% visual injury HORVW Obs (winter barley (HORVW); Compound A 7.5 g/ha): 0%
% visual injury HORVW Obs (winter barley (HORVW); Compound A 10 g/ha): 0%
% visual injury HORVW Obs (winter barley (HORVW); Compound A 15 g/ha): 0%
% visual injury PAPRH Obs ([7]; Compound A 7.5 g/ha): 100%
% visual injury PAPRH Obs ([7]; Compound A 10 g/ha): 99%
% visual injury PAPRH Obs ([7]; Compound A 15 g/ha): 100%
% visual injury CIRAR Obs ([8]; Compound A 7.5 g/ha): 50%
% visual injury CIRAR Obs ([8]; Compound A 10 g/ha): 63%
% visual injury CIRAR Obs ([8]; Compound A 15 g/ha): 63%
% visual injury VERVE Obs ([9]; Compound A 7.5 g/ha): 78%
% visual injury VERVE Obs ([9]; Compound A 10 g/ha): 90%
% visual injury VERVE Obs ([9]; Compound A 15 g/ha): 93%
% visual injury Obs ([10]; Compound A 7.5 g/ha alone): 40%
% visual injury Obs ([10]; Compound A 10 g/ha alone): 48%
% visual injury Obs ([11]; Compound A 7.5 g/ha alone): 55%
% visual injury Obs ([11]; Compound A 10 g/ha alone): 60% and 70%
% visual injury VERHE Obs ([12]; Compound A 7.5 g/ha): 68%
% visual injury VERHE Obs ([12]; Compound A 10 g/ha): 73%
% visual injury VERHE Obs ([12]; Compound A 15 g/ha): 75%
